From ChEMBL document CHEMBL3286145, “Evaluation of the antiprion activity of 6-aminophenanthridines and related heterocycles” (Eur J Med Chem, 2014)
Activity calls are given as the source filed them. The rule behind the calls is not given here.

Legend:
Saccharomyces cerevisiae [1] = assay: Antiprion activity against yeast SB34 prion protein [URE3] at 50 nmole by colorimetric assay
Saccharomyces cerevisiae [2] = assay: Antiprion activity against yeast STRg6 prion protein [PSI+] at 50 nmole by colorimetric assay

## Nc1ccc2c(c1)c(N)nc1ccccc12
Saccharomyces cerevisiae [1]
  antiprion activity (active/not active): inactive
Saccharomyces cerevisiae [2]
  antiprion activity (active/not active): Active

## Nc1nc2cccnc2c2ccccc12
Saccharomyces cerevisiae [1]
  antiprion activity (active/not active): inactive
Saccharomyces cerevisiae [2]
  antiprion activity (active/not active): inactive

## [N-]=[N+]=Nc1ccc2c(c1)c(N)nc1ccccc12
Saccharomyces cerevisiae [1]
  antiprion activity (active/not active): Active
Saccharomyces cerevisiae [2]
  antiprion activity (active/not active): Active

## Nc1nc2ccccc2c2cc(F)ccc12
Saccharomyces cerevisiae [1]
  antiprion activity (active/not active): Active
Saccharomyces cerevisiae [2]
  antiprion activity (active/not active): Active

## Nc1nc2ccccc2c2ccccc12
Saccharomyces cerevisiae [1]
  antiprion activity (active/not active): Active
Saccharomyces cerevisiae [2]
  antiprion activity (active/not active): Active

## CC[C@H](CO)Nc1nc2ccccc2c2ccccc12
Saccharomyces cerevisiae [1]
  antiprion activity (active/not active): inactive
Saccharomyces cerevisiae [2]
  antiprion activity (active/not active): inactive

## Nc1nc2ccccc2c2c1CC=CC2
Saccharomyces cerevisiae [1]
  antiprion activity (active/not active): Active
Saccharomyces cerevisiae [2]
  antiprion activity (active/not active): Active

## Nc1nc2ccccc2c2cnccc12
Saccharomyces cerevisiae [1]
  antiprion activity (active/not active): inactive
Saccharomyces cerevisiae [2]
  antiprion activity (active/not active): inactive

## Cc1ccc2c(N)nc3ccccc3c2c1
Saccharomyces cerevisiae [1]
  antiprion activity (active/not active): Active
Saccharomyces cerevisiae [2]
  antiprion activity (active/not active): Active

## Nc1nc2ccccc2c2c1CCCC2
Saccharomyces cerevisiae [1]
  antiprion activity (active/not active): Active
Saccharomyces cerevisiae [2]
  antiprion activity (active/not active): Active

## Nc1cccc2c1c(N)nc1ccccc12
Saccharomyces cerevisiae [1]
  antiprion activity (active/not active): Active
Saccharomyces cerevisiae [2]
  antiprion activity (active/not active): Active

## Nc1nc2ccc(OC(F)(F)F)cc2c2ccccc12
Saccharomyces cerevisiae [1]
  antiprion activity (active/not active): inactive
Saccharomyces cerevisiae [2]
  antiprion activity (active/not active): Active

## Nc1nc2ccccc2c2ccc(F)cc12
Saccharomyces cerevisiae [1]
  antiprion activity (active/not active): Active
Saccharomyces cerevisiae [2]
  antiprion activity (active/not active): Active

## Nc1nc2ccccc2c2ccc(C(F)(F)F)cc12
Saccharomyces cerevisiae [1]
  antiprion activity (active/not active): Active
Saccharomyces cerevisiae [2]
  antiprion activity (active/not active): Active

## Cc1ccc2c(N)nc3ccccc3c2n1
Saccharomyces cerevisiae [1]
  antiprion activity (active/not active): inactive
Saccharomyces cerevisiae [2]
  antiprion activity (active/not active): inactive

## COc1ccc(CCNc2nc3ccccc3c3ccccc23)cc1OC
Saccharomyces cerevisiae [1]
  antiprion activity (active/not active): inactive
Saccharomyces cerevisiae [2]
  antiprion activity (active/not active): inactive

## Nc1nc2ccccc2c2cccc(F)c12
Saccharomyces cerevisiae [1]
  antiprion activity (active/not active): Active
Saccharomyces cerevisiae [2]
  antiprion activity (active/not active): Active

## CN[S+]([O-])c1ccc2c(N)nc3ccccc3c2c1 (stereo not given)
Saccharomyces cerevisiae [1]
  antiprion activity (active/not active): inactive
Saccharomyces cerevisiae [2]
  antiprion activity (active/not active): inactive

## Nc1nc2ccccc2c2cc([N+](=O)[O-])ccc12
Saccharomyces cerevisiae [1]
  antiprion activity (active/not active): inactive
Saccharomyces cerevisiae [2]
  antiprion activity (active/not active): Active

## COc1cc(OC)c2nc(N)c3ccccc3c2c1
Saccharomyces cerevisiae [1]
  antiprion activity (active/not active): inactive
Saccharomyces cerevisiae [2]
  antiprion activity (active/not active): Active

## Nc1nc2ncccc2c2ccccc12
Saccharomyces cerevisiae [1]
  antiprion activity (active/not active): inactive
Saccharomyces cerevisiae [2]
  antiprion activity (active/not active): inactive

## Nc1nc2ccccc2c2ccc([N+](=O)[O-])cc12
Saccharomyces cerevisiae [1]
  antiprion activity (active/not active): Active
Saccharomyces cerevisiae [2]
  antiprion activity (active/not active): Active

## Cc1ccc2nc(N)c3ccccc3c2c1
Saccharomyces cerevisiae [1]
  antiprion activity (active/not active): inactive
Saccharomyces cerevisiae [2]
  antiprion activity (active/not active): Active

## Nc1nc2ccccc2c2cccc([N+](=O)[O-])c12
Saccharomyces cerevisiae [1]
  antiprion activity (active/not active): Active
Saccharomyces cerevisiae [2]
  antiprion activity (active/not active): Active

## Nc1nc2ccncc2c2ccccc12
Saccharomyces cerevisiae [1]
  antiprion activity (active/not active): inactive
Saccharomyces cerevisiae [2]
  antiprion activity (active/not active): inactive
